Source: ChEMBL document CHEMBL5500403, “Discovery of a Double-Stapled Short Peptide as a Long-Acting HIV-1 Inactivator with Potential for Oral Bioavailability” (J Med Chem, 2024)
Bridge positions count the residues as written; N and C are the ends. Square brackets hold non-standard residues; d marks the D form. Peptide text beside a SMILES is read from it. S5 = C=CCCC[C@](C)(N)C(=O)O

Columns and labels:
[1] = tested on: Human immunodeficiency virus 1; experiment: Antiviral activity against T20-resistant HIV-1 NL4-3 harboring […] V38E and N42S mutant infected in human MT2 cells assessed as inhibition of viral growth pretreated with virus for 30 mins followed by infection with cells incubated for 72 hrs by ELISA; type: functional, organism-based
[2] = MRT in Sprague-Dawley rat at 1 mg/kg,iv administration measured upto 9 days by LC-MS/MS analysis; type: ADME, organism-based; conditions: in vivo, time < 9 day
[3] = Drug concentration in Sprague-Dawley rat plasma at 50 mg/kg,po administrated for 5 days by LC-MS/MS analysis; type: ADME, organism-based; conditions: in vivo, 120 h, time 5 day
[4] = biological target: chymotrypsin (Homo sapiens, UniProt P17538+P40313+Q6GPI1+Q99895); experiment: Proteolytic stability assessed as Chymotrypsin (unknown origin) mediated compound degradation by measuring parent compound remaining incubated for 2 hrs by LC-MS/MS analysis; type: ADME, protein assay; conditions: read-out: Stability
[5] = Volume of distribution at steady state in Sprague-Dawley rat at 1 mg/kg,iv administration measured upto 9 days by LC-MS/MS analysis; type: ADME, organism-based; conditions: in vivo, time < 9 day, read-out: Vdss
[6] = tested on: Human immunodeficiency virus 1; experiment: Antiviral activity against T20-resistant HIV-1 NL4-3 harboring […] N38A and N42T mutant infected in human MT2 cells assessed as inhibition of viral growth pretreated with virus for 30 mins followed by infection with cells incubated for 72 hrs by ELISA; type: functional, organism-based
[7] = Cytotoxicity against human MT2 cells; type: toxicity, cell-based
[8] = tested on: Human immunodeficiency virus 1; experiment: Antiviral activity against HIV-1 Bal-R5 assessed as reduction in viral growth by measuring p24 antigen level incubated for 2 hrs by ELISA; type: functional, organism-based; conditions: Human immunodeficiency virus 1, Bal-R5, 2 h
[9] = tested on: Human immunodeficiency virus 1; experiment: Antiviral activity against HIV-1 clinical isolate X4-89BZ167 assessed as reduction in viral growth by measuring p24 antigen level incubated for 2 hrs by ELISA; type: functional, organism-based; conditions: Human immunodeficiency virus 1, clinical isolate X4-89BZ167, 2 h
[10] = Proteolytic stability assessed as Pepsin (unknown origin) mediated compound degradation incubated for 4 hrs by LC-MS/MS analysis; type: ADME; conditions: human
[11] = AUClast in Sprague-Dawley rat at 1 mg/kg,iv administration measured upto 9 days by LC-MS/MS analysis; type: ADME, organism-based; conditions: in vivo, time < 9 day
[12] = tested on: Human immunodeficiency virus 1; experiment: Antiviral activity against T20-resistant HIV-1 NL4-3 harboring […] N42T and N43K mutant assessed as reduction in viral growth by measuring p24 antigen level incubated for 2 hrs by ELISA; type: functional, organism-based
[13] = tested on: Human immunodeficiency virus 1; experiment: Antiviral activity against HIV-1 IIIB assessed as reduction in viral growth by measuring p24 antigen level incubated for 2 hrs by ELISA; type: functional, organism-based; conditions: Human immunodeficiency virus 1, IIIB
[14] = tested on: Human immunodeficiency virus 1; experiment: Antiviral activity against HIV-1 IIIB infected in human MT2 cells assessed as inhibition of viral growth pretreated with virus for 30 mins followed by infection with cells incubated for 72 hrs by ELISA; type: functional, organism-based; conditions: Human immunodeficiency virus 1, IIIB
[15] = Elimination half life in Sprague-Dawley rat at 1 mg/kg,iv administration measured upto 9 days by LC-MS/MS analysis; type: ADME, organism-based; conditions: in vivo, time < 9 day, read-out: beta t1/2 (converted)
[16] = tested on: Human immunodeficiency virus 1; experiment: Antiviral activity against T20-resistant HIV-1 NL4-3 harboring […] N42T and N43K mutant infected in human MT2 cells assessed as inhibition of viral growth pretreated with virus for 30 mins followed by infection with cells incubated for 72 hrs by ELISA; type: functional, organism-based
[17] = Proteolytic stability assessed as proteinase K (unknown origin) mediated compound degradation incubated for 4 hrs by LC-MS/MS analysis; type: ADME; conditions: human
[18] = Biodistribution in Sprague-Dawley rat brain at 1 mg/kg,iv administration measured after 144 hrs by LC-MS/MS analysis; type: ADME, organism-based; conditions: in vivo
[19] = Total clearance in Sprague-Dawley rat at 1 mg/kg,iv administration measured upto 9 days by LC-MS/MS analysis; type: ADME, organism-based; conditions: in vivo, time < 9 day
[20] = Biodistribution in Sprague-Dawley rat brain at 1 mg/kg,iv administration measured after 5 mins by LC-MS/MS analysis; type: ADME, organism-based; conditions: in vivo
[21] = tested on: Human immunodeficiency virus 1; experiment: Antiviral activity against T20-resistant HIV-1 NL4-3 harboring […] N38A and N42T mutant assessed as reduction in viral growth by measuring p24 antigen level incubated for 2 hrs by ELISA; type: functional, organism-based
[22] = Stability in rat liver assessed as parent compound remaining at 1 ug/ml incubated for 1 hr by LC-MS/MS analysis; type: ADME, tissue-based; conditions: at 1 µg/mL, read-out: Stability
[23] = Drug degradation in rat plasma at 1 ug/ml incubated for 1 hr by LC-MS/MS analysis; type: ADME, cell-free; conditions: at 1 µg/mL
[24] = Selectivity index, ratio of CC50 for cytotoxicity against human MT2 cells to IC50 for antiviral activity against HIV-1 IIIB infected in human MT2 cells; type: toxicity, cell-based; conditions: read-out: Ratio CC50/IC50
[25] = tested on: Human immunodeficiency virus 1; experiment: Antiviral activity against T20-resistant HIV-1 NL4-3 harboring […] V38E and N42S mutant assessed as reduction in viral growth by measuring p24 antigen level incubated for 2 hrs by ELISA; type: functional, organism-based
[26] = Plasma protein binding in rat by LC-MS/MS analysis; type: ADME, cell-free; conditions: read-out: PPB (converted)
[27] = Plasma protein binding in human by LC-MS/MS analysis; type: ADME, cell-free; conditions: read-out: PPB (converted)

**Q.** What does the source list for H-GWEALKYLWNLLQYW-OH?
**A.** IC50 [1]: 21.3 nM; MRT [2]: 5.4 h; Drug uptake [3]: Not Active; remaining at 2 h [4]: 32.9%; Vd [5]: 0.0527 L/kg; IC50 [6]: 20.1 nM; CC50 [7]: 7900 nM; EC50 [8]: 25300 nM; EC50 [9]: 98 nM; Stability [10]: Unstable; AUC(0-t) at 216 h [11]: 114 µg·h/mL; EC50 [12]: 41.9 nM; EC50 [13]: 26.1 nM; IC50 [14]: 130 nM; half-life [15]: 3.8 h; IC50 [16]: 142 nM; Stability [17]: Unstable; Drug uptake [18]: Not Active; clearance [19]: 0.158 mL/min/kg; Drug uptake [20]: Active; EC50 [21]: 30.5 nM; remaining at 1 h, 1 ug/ml [22]: 80%; Stability [23]: Stable; selectivity ratio [24]: 60.9; EC50 [25]: 371 nM

**Q.** Which results are given for `CC(=O)NCC(=O)N[C@@H](Cc1c[nH]c2ccccc12)C(=O)N[C@@H](CCC(=O)O)C(=O)N[C@@H](C)C(=O)N[C@@H](CC(C)C)C(=O)N[C@@H](CCCCN)C(=O)N[C@@H](Cc1ccc(O)cc1)C(=O)N[C@@]1(C)CCC/C=C\CCC[C@@](C)(C(=O)N[C@@H](CCC(N)=O)C(=O)N[C@@H](Cc2ccc(O)cc2)C(=O)N[C@@H](Cc2c[nH]c3ccccc23)C(N)=O)NC(=O)[C@H](CC(C)C)NC(=O)[C@H](CC(N)=O)NC(=O)[C@H](Cc2c[nH]c3ccccc23)NC1=O` (Ac-GWEALKY[S5]WNL[S5]QYW-NH2; staple (Z) 8-12)?
**A.** CC50 [7]: 2490 nM; IC50 [14]: 95.5 nM; selectivity ratio [24]: 26.1

**Q.** What does the source list for `CC(=O)NCC(=O)N[C@@H](Cc1c[nH]c2ccccc12)C(=O)N[C@@H](CCC(=O)O)C(=O)N[C@@]1(C)CCC/C=C\CCC[C@@](C)(C(=O)N[C@@H](Cc2c[nH]c3ccccc23)C(=O)N[C@@H](CC(N)=O)C(=O)N[C@@H](CC(C)C)C(=O)N[C@@H](CC(C)C)C(=O)N[C@@H](CCC(N)=O)C(=O)N[C@@H](Cc2ccc(O)cc2)C(=O)N[C@@H](Cc2c[nH]c3ccccc23)C(N)=O)NC(=O)[C@H](Cc2ccc(O)cc2)NC(=O)[C@H](CCCCN)NC(=O)[C@H](CC(C)C)NC1=O` (Ac-GWE[S5]LKY[S5]WNLLQYW-NH2; staple (Z) 4-8)?
**A.** CC50 [7]: 2310 nM; IC50 [14]: 44.2 nM; selectivity ratio [24]: 52.5

**Q.** For `CC(=O)NCC(=O)N[C@@H](Cc1c[nH]c2ccccc12)C(=O)N[C@@H](CCC(=O)O)C(=O)N[C@@H](C)C(=O)N[C@@H](CC(C)C)C(=O)N[C@@H](CCCCN)C(=O)N[C@@H](Cc1ccc(O)cc1)C(=O)N[C@@H](CC(C)C)C(=O)N[C@@]1(C)CCC/C=C\CCC[C@@](C)(C(=O)N[C@@H](Cc2ccc(O)cc2)C(=O)N[C@@H](Cc2c[nH]c3ccccc23)C(N)=O)NC(=O)[C@H](CC(C)C)NC(=O)[C@H](CC(C)C)NC(=O)[C@H](CC(N)=O)NC1=O` (Ac-GWEALKYL[S5]NLL[S5]YW-NH2; staple (Z) 9-13), which CC50 [7] is on record?
**A.** 5870 nM

**Q.** And the IC50 [14]?
**A.** 160 nM

**Q.** And the selectivity ratio [24]?
**A.** 36.9

**Q.** Which EC50 [8] does the source give for enfuvirtide here?
**A.** > 4000 nM

**Q.** What about the EC50 [9] of the same compound?
**A.** > 4000 nM

**Q.** What about the fraction unbound [26] of the same compound?
**A.** 0.041

**Q.** And the EC50 [13]?
**A.** > 4000 nM

**Q.** And the IC50 [14]?
**A.** 48.6 nM

**Q.** What about the fraction unbound [27] of the same compound?
**A.** 0.187

**Q.** For `CC(=O)NCC(=O)N[C@@]1(C)CCC/C=C\CCC[C@@](C)(C(=O)N[C@@H](Cc2ccc(O)cc2)C(=O)N[C@@H](CC(C)C)C(=O)N[C@@H](Cc2c[nH]c3ccccc23)C(=O)N[C@@H](CC(N)=O)C(=O)N[C@@H](CC(C)C)C(=O)N[C@@H](CC(C)C)C(=O)N[C@@H](CCC(N)=O)C(=O)N[C@@H](Cc2ccc(O)cc2)C(=O)N[C@@H](Cc2c[nH]c3ccccc23)C(N)=O)NC(=O)[C@H](CC(C)C)NC(=O)[C@H](C)NC(=O)[C@H](CCC(=O)O)NC1=O` (Ac-G[S5]EAL[S5]YLWNLLQYW-NH2; staple (Z) 2-6), which CC50 [7] is on record?
**A.** 7180 nM

**Q.** And the IC50 [14]?
**A.** 121 nM

**Q.** What about the selectivity ratio [24] of the same compound?
**A.** 59.3

**Q.** Which results are given for `CC(=O)N[C@@]1(C)CCC/C=C\CCC[C@@](C)(C(=O)N[C@@H](CCCCN)C(=O)N[C@@H](Cc2ccc(O)cc2)C(=O)N[C@@H](CC(C)C)C(=O)N[C@@H](Cc2c[nH]c3ccccc23)C(=O)N[C@@H](CC(N)=O)C(=O)N[C@@H](CC(C)C)C(=O)N[C@@H](CC(C)C)C(=O)N[C@@H](CCC(N)=O)C(=O)N[C@@H](Cc2ccc(O)cc2)C(=O)N[C@@H](Cc2c[nH]c3ccccc23)C(N)=O)NC(=O)[C@H](C)NC(=O)[C@H](CCC(=O)O)NC(=O)[C@H](Cc2c[nH]c3ccccc23)NC1=O` (Ac-[S5]WEA[S5]KYLWNLLQYW-NH2; staple (Z) 1-5)?
**A.** CC50 [7]: 2670 nM; IC50 [14]: 34.2 nM; selectivity ratio [24]: 78.5

**Q.** For `CC(=O)NCC(=O)N[C@@H](Cc1c[nH]c2ccccc12)C(=O)N[C@@H](CCC(=O)O)C(=O)N[C@@H](C)C(=O)N[C@@]1(C)CCC/C=C\CCC[C@@](C)(C(=O)N[C@@H](CC(N)=O)C(=O)N[C@@H](CC(C)C)C(=O)N[C@@H](CC(C)C)C(=O)N[C@@H](CCC(N)=O)C(=O)N[C@@H](Cc2ccc(O)cc2)C(=O)N[C@@H](Cc2c[nH]c3ccccc23)C(N)=O)NC(=O)[C@H](CC(C)C)NC(=O)[C@H](Cc2ccc(O)cc2)NC(=O)[C@H](CCCCN)NC1=O` (Ac-GWEA[S5]KYL[S5]NLLQYW-NH2; staple (Z) 5-9), which IC50 [14] is on record?
**A.** > 2000 nM

**Q.** What does the source list for `CC(=O)N[C@@]1(C)CCC/C=C\CCC[C@@](C)(C(=O)N[C@@H](CCCCN)C(=O)N[C@@H](Cc2ccc(O)cc2)C(=O)N[C@@]2(C)CCC/C=C\CCC[C@@](C)(C(=O)N[C@@H](CCC(N)=O)C(=O)N[C@@H](Cc3ccc(O)cc3)C(=O)N[C@@H](Cc3c[nH]c4ccccc34)C(N)=O)NC(=O)[C@H](CC(C)C)NC(=O)[C@H](CC(N)=O)NC(=O)[C@H](Cc3c[nH]c4ccccc34)NC2=O)NC(=O)[C@H](C)NC(=O)[C@H](CCC(=O)O)NC(=O)[C@H](Cc2c[nH]c3ccccc23)NC1=O` (Ac-[S5]WEA[S5]KY[S5]WNL[S5]QYW-NH2; staple (Z) 1-5, 8-12)?
**A.** CC50 [7]: 4030 nM; IC50 [14]: 124 nM; selectivity ratio [24]: 32.6
